# In US9150575B2, “Piperidinylpyrazolopyridine derivative” (Daiichi Sankyo Company, Limited, priority 2012, dated 2015):
# Molecular target: T1, LCAT (Homo sapiens, UniProt P04180)
# T1 construct: The obtained fraction was dialyzed against phosphate-buffered saline (pH 7.4) and used as an enzyme source and an acceptor for LCAT; from tissue; host or cells: HDL3 fraction (1.125<specific gravity<1.210 g/mL) of plasma from a healthy person
# T1 sequence (P04180 25-440): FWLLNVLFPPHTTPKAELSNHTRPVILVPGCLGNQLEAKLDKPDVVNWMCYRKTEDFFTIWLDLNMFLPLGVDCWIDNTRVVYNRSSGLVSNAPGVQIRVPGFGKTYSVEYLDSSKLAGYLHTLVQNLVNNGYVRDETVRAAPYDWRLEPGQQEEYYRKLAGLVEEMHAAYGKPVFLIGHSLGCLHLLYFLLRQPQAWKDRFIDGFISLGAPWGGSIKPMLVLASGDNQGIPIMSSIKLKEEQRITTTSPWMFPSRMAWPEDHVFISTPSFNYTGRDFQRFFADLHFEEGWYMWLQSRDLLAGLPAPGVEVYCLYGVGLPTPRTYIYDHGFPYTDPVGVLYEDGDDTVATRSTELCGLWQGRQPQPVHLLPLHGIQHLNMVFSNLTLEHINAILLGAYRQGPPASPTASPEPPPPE
# Experiment: LCAT Activity Measurement (In Vitro)
# Type: biochemical
# Settings: EC50 of LCAT activation; HDL3 fraction from plasma of a healthy person as enzyme source and acceptor; [14C]cholesterol; 37° C., approximately 16 hours
# Summary of the method: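 Human plasma HDL3 (1 mg/mL, PBS pH 7.4) served as enzyme and acceptor with [14C]cholesterol, 0.5 mM DTNB, 12.5 mM mercaptoethanol and 0.6% BSA; compounds in DMSO, incubated ~16 h at 37 °C. Cholesterol oleate radioactivity quantified after extraction and TLC; EC50 of activation fitted relative to no-drug control.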
row,SMILES,EC50 [nM]
1,"O=C1CC(O)(C(F)(F)F)c2c(C3CCN(c4ccc(C(F)(F)F)cn4)CC3)n[nH]c2N1 (centres unmarked) [Example 8, 4-Hydroxy-4-(trifluoromethyl)-3-{1-[5-(trifluoromethyl)pyridin-2-yl]piperidin-4-yl}-1,4,5,7-tetrahydro-6H-pyrazolo[3,4-b]pyridin-6-one]",21
2,"O=C1CC(O)(C(F)(F)F)c2c(C3CCN(c4cccnc4)CC3)n[nH]c2N1 (centres unmarked) [Example 27, 4-Hydroxy-3-[1-(pyridin-3-yl)piperidin-4-yl]-4-(trifluoromethyl)-1,4,5,7-tetrahydro-6H-pyrazolo[3,4-b]pyridin-6-one]",2410
3,"CCOc1ccc(N2CCC(c3n[nH]c4c3C(O)(C(F)(F)F)CC(=O)N4)CC2)cc1 (centres unmarked) [Example 59, 3-[1-(4-Ethoxyphenyl)piperidin-4-yl]-4-hydroxy-4-(trifluoromethyl)-1,4,5,7-tetrahydro-6H-pyrazolo[3,4-b]pyridin-6-one]",260
4,"O=C1CC(O)(C(F)(F)F)c2c(C3CCN(c4ccc(C(F)(F)F)nn4)CC3)n[nH]c2N1 (centres unmarked) [Example 43, 4-Hydroxy-4-(trifluoromethyl)-3-{1-[6-(trifluoromethyl)pyridazin-3-yl]piperidin-4-yl}-1,4,5,7-tetrahydro-6H-pyrazolo[3,4-b]pyridin-6-one]",56
5,"O=C1CC(O)(C(F)(F)F)c2c(C3CCN(c4ccc(Cl)cn4)CC3)n[nH]c2N1 (centres unmarked) [Example 14, 3-[1-(5-Chloropyridin-2-yl)piperidin-4-yl]-4-hydroxy-4-(trifluoromethyl)-1,4,5,7-tetrahydro-6H-pyrazolo[3,4-b]pyridin-6-one]",86
6,"N#Cc1cc(N2CCC(c3n[nH]c4c3C(O)(C(F)(F)F)CC(=O)N4)CC2)ccc1OC(F)(F)F (centres unmarked) [Example 62, 5-{4-[4-Hydroxy-6-oxo-4-(trifluoromethyl)-4,5,6,7-tetrahydro-1H-pyrazolo[3,4-b]pyridin-3-yl]piperidin-1-yl}-2-(trifluoromethoxy)benzonitrile]",7
7,"O=C1CC(O)(C(F)(F)F)c2c(C3CCN(c4ncccc4Cl)CC3)n[nH]c2N1 (centres unmarked) [Example 11, 3-[1-(3-Chloropyridin-2-yl)piperidin-4-yl]-4-hydroxy-4-(trifluoromethyl)-1,4,5,7-tetrahydro-6H-pyrazolo[3,4-b]pyridin-6-one]",3090
8,"O=C1CC(O)(C(F)(F)F)c2c(C3CCN(c4ccc(C(F)(F)F)nc4)CC3)n[nH]c2N1 (centres unmarked) [Example 41, 4-Hydroxy-4-(trifluoromethyl)-3-{1-[6-(trifluoromethyl)pyridin-3-yl]piperidin-4-yl}-1,4,5,7-tetrahydro-6H-pyrazolo[3,4-b]pyridin-6-one]",26
9,"COc1ccnc(N2CCC(c3n[nH]c4c3C(O)(C(F)(F)F)CC(=O)N4)CC2)n1 (centres unmarked) [Example 30, 4-Hydro-3-[1-(4-methoxypyrimidin-2-yl)piperidin-4-yl]-4-(trifluoromethyl)-1,4,5,7-tetrahydro-6H-pyrazolo[3,4-b]pyridin-6-one]",2460
10,"O=C1CC(O)(C(F)(F)F)c2c(C3CCN(c4nc(Cl)ccc4C(F)(F)F)CC3)n[nH]c2N1 (centres unmarked) [Compound 98-b, 3-{1-[6-chloro-3-(trifluoromethyl)pyridin-2-yl]piperidin-4-yl}-4-hydroxy-4-(trifluoromethyl)-1,4,5,7-tetrahydro-6H-pyrazolo[3,4-b]pyridin-6-one]",510
11,"N#Cc1cc(C(F)(F)F)cnc1N1CCC(c2n[nH]c3c2C(O)(C(F)(F)F)CC(=O)N3)CC1 (centres unmarked) [Example 101, 2-{4-[4-Hydroxy-6-oxo-4-(trifluoromethyl)-4,5,6,7-tetrahydro-1H-pyrazolo[3,4-b]pyridin-3-yl]piperidin-1-yl}-5-(trifluoromethyl)pyridine-3-carbonitrile]",170
12,"N#Cc1cncc(N2CCC(c3n[nH]c4c3C(O)(C(F)(F)F)CC(=O)N4)CC2)c1 (centres unmarked) [Example 37, 5-{4-[4-Hydroxy-6-oxo-4-(trifluoromethyl)-4,5,6,7-tetrahydro-1H-pyrazolo[3,4-b]pyridin-3-yl]piperidin-1-yl}pyridine-3-carbonitrile]",71
13,"O=C1CC(O)(C(F)(F)F)c2c(C3CCN(c4nc(C(F)(F)F)c(-c5nc(C(F)(F)F)cs5)s4)CC3)n[nH]c2N1 (centres unmarked) [Compound 48-b, 3-{1-[4,4′-bis(trifluoromethyl)-2,5′-bi-1,3-thiazol-2′-yl]piperidin-4-yl}-4-hydroxy-4-(trifluoromethyl)-1,4,5,7-tetrahydro-6H-pyrazolo[3,4-b]pyridin-6-one]",46

# The remaining compounds from weak to strong by EC50, led by results:
row,EC50 [nM],SMILES
1,650,"N#Cc1ccc(N2CCC(c3n[nH]c4c3C(O)(C(F)(F)F)CC(=O)N4)CC2)cn1 (centres unmarked) [Example 19, 5-{4-[4-Hydroxy-6-oxo-4-(trifluoromethyl)-4,5,6,7-tetrahydro-1H-pyrazolo[3,4-b]pyridin-3-yl]piperidin-1-yl}pyridine-2-carbonitrile]"
2,300,"O=C1CC(O)(C(F)(F)F)c2c(C3CCN(c4ccnc(C(F)(F)F)n4)CC3)n[nH]c2N1 (centres unmarked) [Example 79, 4-Hydroxy-4-(trifluoromethyl)-3-{1-[2-(trifluoromethyl)pyrimidin-4-yl]piperidin-4-yl}-1,4,5,7-tetrahydro-6H-pyrazolo[3,4-b]pyridin-6-one]"
3,290,"Cc1nc(N2CCC(c3n[nH]c4c3C(O)(C(F)(F)F)CC(=O)N4)CC2)ccc1C#N (centres unmarked) [Example 20, 6-{4-[4-Hydroxy-6-oxo-4-(trifluoromethyl)-4,5,6,7-tetrahydro-1H-pyrazolo[3,4-b]pyridin-3-yl]piperidin-1-yl}-2-methylpyridine-3-carbonitrile]"
4,290,"Cc1ccnc(N2CCC(c3n[nH]c4c3C(O)(C(F)(F)F)CC(=O)N4)CC2)c1 (centres unmarked) [Example 5, 4-Hydroxy-3-[1-(4-methylpyridin-2-yl)piperidin-4-yl]-4-(trifluoromethyl)-1,4,5,7-tetrahydro-6H-pyrazolo[3,4-b]pyridin-6-one]"
5,210,"O=C1CC(O)(C(F)(F)F)c2c(C3CCN(c4ncc(C(F)(F)F)cc4Cl)CC3)n[nH]c2N1 (centres unmarked) [Example 10, 3-{1-[3-Chloro-5-(trifluoromethyl)pyridin-2-yl]piperidin-4-yl}-4-hydroxy-4-(trifluoromethyl)-1,4,5,7-tetrahydro-6H-pyrazolo[3,4-b]pyridin-6-one]"
6,150,"O=C1CC(O)(C(F)(F)F)c2c(C3CCN(c4ccc(Cl)nn4)CC3)n[nH]c2N1 (centres unmarked) [Example 34, 3-[1-(6-Chloropyridazin-3-yl)piperidin-4-yl]-4-hydroxy-4-(trifluoromethyl)-1,4,5,7-tetrahydro-6H-pyrazolo[3,4-b]pyridin-6-one]"
7,79,"O=C1CC(O)(C(F)(F)F)c2c(C3CCN(c4ccc(OC(F)F)cc4)CC3)n[nH]c2N1 (centres unmarked) [Example 55, 3-{1-[4-(Difluoromethoxy)phenyl]piperidin-4-yl}-4-hydroxy-4-(trifluoromethyl)-1,4,5,7-tetrahydro-6H-pyrazolo[3,4-b]pyridin-6-one]"
8,56,"O=C1CC(O)(C(F)(F)F)c2c(C3CCN(c4cc(C(F)(F)F)ccn4)CC3)n[nH]c2N1 (centres unmarked) [Example 13, 4-Hydroxy-4-(trifluoromethyl)-3-{1-[4-(trifluoromethyl)pyridin-2-yl]piperidin-4-yl}-1,4,5,7-tetrahydro-6H-pyrazolo[3,4-b]pyridin-6-one]"
9,45,"O=C1CC(O)(C(F)(F)F)c2c(C3CCN(c4ccc(Cl)cn4)CC3)n[nH]c2N1 (single isomer, unassigned; (-)) [Compound 50-1, (−)-3-[1-(5-Chloropyridin-2-yl)piperidin-4-yl]-4-hydroxy-4-(trifluoromethyl)-1,4,5,7-tetrahydro-6H-pyrazolo[3,4-b]pyridin-6-one]"
10,27,"O=C1CC(O)(C(F)(F)F)c2c(C3CCN(c4cc(I)c(C(F)(F)F)cn4)CC3)n[nH]c2N1 (single isomer, unassigned) [Compound 103-1, 4-hydroxy-3-{1-[4-iodo-5-(trifluoromethyl)pyridin-2-yl]piperidin-4-yl}-4-(trifluoromethyl)-1,4,5,7-tetrahydro-6H-pyrazolo[3,4-b]pyridin-6-one]"

# System: cynomolgus monkey
# Experiment: Drug Efficacy Test in Cynomolgus Monkeys
# Type: in vivo
# Settings: oral, single dose of 10 mg/kg, compared with before administration, from AUC before administration and 24 hours after administration
# Experimental: Each test drug was dissolved in a propylene glycol (Sigma-Aldrich Corp.)-Tween 80 (Sigma-Aldrich Corp.) mixed solution [4/1 (v/v)] or a 0.5% (w/v) methylcellulose aqueous solution, and the solution was orally administered to a cynomolgus monkey for 1 or 7 days. At 1 or 7 day of administration period, blood was collected before administration and after administration, and plasma was obtained. The content of cholesterol in the plasma was measured using a commercially available assay kit (Cholesterol-E Wako, Wako Pure Chemical Industries, Ltd.). The lipoprotein profile was analyzed by HPLC (column: LipopropakXL, manufactured by Tosoh Corp.). The contents of HDL cholesterol and non-HDL cholesterol were calculated according to the following calculation expression: Content of HDL cholesterol=Content of cholesterol in the plasma×(Peak area of HDL cholesterol/Total sum of peaks) Content of non-HDL cholesterol=Content of cholesterol in the plasma×(Peak area of non-HDL cholesterol/Total sum of peaks)
# The rate (%) of increase in HDL level after the administration of a single dose of 10 mg/kg compared with before administration was determined from AUC before administration and 24 hours after administration.
row,SMILES,Rate of increase in HDL level after administration of single dose [%]
1,"O=C1CC(O)(C(F)(F)F)c2c(C3CCN(c4ncc(C(F)(F)F)cc4Cl)CC3)n[nH]c2N1 (centres unmarked) [Example 10, 3-{1-[3-Chloro-5-(trifluoromethyl)pyridin-2-yl]piperidin-4-yl}-4-hydroxy-4-(trifluoromethyl)-1,4,5,7-tetrahydro-6H-pyrazolo[3,4-b]pyridin-6-one]",526
2,"O=C1CC(O)(C(F)(F)F)c2c(C3CCN(c4ccc(C(F)(F)F)cn4)CC3)n[nH]c2N1 (centres unmarked) [Example 8, 4-Hydroxy-4-(trifluoromethyl)-3-{1-[5-(trifluoromethyl)pyridin-2-yl]piperidin-4-yl}-1,4,5,7-tetrahydro-6H-pyrazolo[3,4-b]pyridin-6-one]",531
3,"O=C1CC(O)(C(F)(F)F)c2c(C3CCN(c4ccc(Cl)cn4)CC3)n[nH]c2N1 (single isomer, unassigned; (-)) [Compound 50-1, (−)-3-[1-(5-Chloropyridin-2-yl)piperidin-4-yl]-4-hydroxy-4-(trifluoromethyl)-1,4,5,7-tetrahydro-6H-pyrazolo[3,4-b]pyridin-6-one]",433
